Assay results published in patent publication US20120244567A1, “HUMAN EMBRYONIC STEM CELLS FOR HIGH THROUGHOUT DRUG SCREENING” (BUCK INSTITUTE FOR RESEARCH ON AGING, priority 2009, published 2012).
Where a name gives a salt, the structure may show the parent alone.

Columns and labels:
[1] = system: human fetal-derived astrocytes; assay: Effect on human astrocytes (cell death); assay type: cell-based; conditions: up to 48 hours after treatment
From the text: Media was changed every other day and cells were passaged once a week at a 1:4 ratio.

[2] = system: hESCs and hESC-derived NSCs; assay: Comparative ATP screening on hESCs and hESC-derived NSCs (ratio ESC/NSC or NSC/ESC); design: hit class in primary screen / ESC/NSC: dose or concentration left out as unconfirmed; conditions: NINDS primary screen, ATP relative to DMSO controls
From the text: Hits were defined based on the ability of a compound to affect ATP levels relative to DMSO controls on each plate.

hESC-derived NSCs = assay: ATP assay in hESC-derived NSCs (96-well, primary screen and retest); assay type: cell-based, human; design: cytotoxicity: dose or concentration left out as unconfirmed; toxicity to NSCs (reduced ATP concentrations) / ATP levels in NSC population: unit of the concentration uncertain
Protocol: EBs were then cultured for additional 2-3 days in suspension in neural induction media containing DMEM/F12 with Glutamax, 1×NEAA, 1×N2 and FGF2 (20 ng/ml) prior to attachment on cell culture plates. […] To obtain a pure population of NSCs, rosettes were manually isolated and dissociated into single cells using Accutase. The NSCs population was expanded in Neurobasal media containing 1×NEAA, 1×L-Glutamine (2 mM), 1×B27, LIF and FGF2 20 ng/ml.
Media was changed every day for hESCs and every other day for NSCs and additionally changed prior to drug treatment. The cells were treated with compounds from the NINDS library diluted in […] of either ESC or NSC media to a final concentration of 2.5 mM in 0.01% DMSO. […] For all sampling, ESC and NSC plates were processed in parallel for one drug or control condition at a time.
(§1) For ATP measurements, the media was removed, cells were washed 1× in milliQ water and reconstituted in […] ATP-Lite Mammalian Lysis Buffer and shaken for 5 minutes. Two […] aliquots of lysed cells were replated onto separate 96 well plates for later protein measurements.
(§2) To identify compounds that are toxic to hESCs, hESC-derived NSCs, or both, we screened 720 FDA-approved drugs of the NINDS collection by testing the toxicity of each drug at a dose of 2.5 mM. For endpoint measurement of cell death caused by drug toxicity, we used a widely accepted ATP assay that measures changes in ATP level as an indicator of cellular response to cell death. In this assay, total ATP content per well was measured and normalized to the total cellular protein.
Three concentrations of each compound (1 mM, 2.5 mM and 10 mM) were used in the retest.

hESCs = assay: ATP assay in hESCs (96-well); assay type: cell-based, human; design: dose or concentration left out as unconfirmed; conditions: 48 h (FIG. 5)
Protocol: Media was changed every day for hESCs and every other day for NSCs and additionally changed prior to drug treatment. […] […] For all sampling, ESC and NSC plates were processed in parallel for one drug or control condition at a time.
as §1, §2

NSCs = assay: Cell death observed in NSCs in 35-mm dishes; assay type: cell-based, human
From the text: NSCs and dopaminergic neurons grown in 35-mm dishes were exposed to amiodarone HCl.

2102Ep cells = assay: Effect on immortal cell line 2102Ep; assay type: cell-based, human; conditions: 48 hours after treatment, data not shown
From the text: Media was changed every day and cells were passaged every 3-4 days at a ratio of between 1:4 to 1:6.

CCCCc1oc2ccccc2c1C(=O)c1cc(I)c(OCCN(CC)CC)c(I)c1 [Amiodarone Hydrochloride]
astrocyte cell death [1]: did not cause astrocyte cell death | hit class in primary screen [2]: NSC Killers | ATP levels in NSC population (hESC-derived NSCs; 10 (unit uncertain), 48 h (FIG. 5)): less than 15 % of the control mean | cytotoxicity (hESC-derived NSCs; Homo sapiens, NINDS primary screen, 48 hours, read-out: NSC ATP values below the control mean): ≥ 15% | effect on NSC survival among dose responsive compounds (hESC-derived NSCs; retest, FIG. 2 panel B): most dramatic effect on NSC survival | effect seen in hESC (ATP levels) (hESCs): intermediate between NSCs and dopaminergic neurons | time after drug exposure at which cell death was observed in NSCs (NSCs; 35-mm dishes): 2 h | cell death in NSCs (NSCs; by 8 hours, 35-mm dishes): more than 90% | cell death in similarly treated NSCs (NSCs; within one hour of drug administration): massive cell death | effect on 2102Ep cells (2102Ep cells): no effect
